Assays:
BT-474 = test: Antiproliferative activity against human BT474 cells assessed as inhibition of [3H]thymidine incorporation incubated for 24 hrs prior to [3H]thymidine addition measured after 6 hrs by microbeta counting analysis; type: functional, cell-based
HUVEC [1] = test: Antiangiogenic activity against human HUVEC cells assessed as inhibition of [3H]thymidine incorporation incubated for 24 hrs prior to [3H]thymidine addition measured after 6 hrs by microbeta counting analysis; type: functional, cell-based
[2] = Antiproliferative activity against human Jurkat T cells assessed as inhibition of [3H]thymidine incorporation incubated for 24 hrs prior to [3H]thymidine addition measured after 6 hrs by microbeta counting analysis; type: functional, cell-based
HeLa [3] = test: Antiproliferative activity against human HeLa cells assessed as inhibition of [3H]thymidine incorporation incubated for 24 hrs prior to [3H]thymidine addition measured after 6 hrs by microbeta counting analysis; type: functional, cell-based
HeLa [4] = test: Selectivity ratio of IC50 for human HeLa cells to IC50 for human HUVEC cells; type: functional
HUVEC [5] = test: Selectivity ratio of IC50 for human BT474 cells to IC50 for human HUVEC cells; type: functional
HUVEC [6] = test: Selectivity ratio of IC50 for human Jurkat T cells to IC50 for human HUVEC cells; type: functional
HUVEC [7] = test: Antiangiogenic activity against human HUVEC cells assessed as inhibition of tube formation after 16 to 18 hrs by Calcein-AM staining-based fluorescence microscopic analysis; type: functional, cell-based
HUVEC [8] = test: Antiangiogenic activity against human HUVEC cells assessed as inhibition of tube formation at 5 uM after 16 to 18 hrs by Calcein-AM staining-based fluorescence microscopic analysis; type: functional

Molecule `Nc1nc2c(s1)CCCc1ccc(F)cc1-2` has an IC50 (BT-474) of over 20 µM, an IC50 (HUVEC [1]) of 14.8 µM and an IC50 [2] of over 20 µM. The IC50 (HeLa [3]) was 16.2 µM.

In the case of `CCC(=O)Nc1nc2c(s1)CCc1cc(OC)c(OC)cc1-2`, the IC50 (HUVEC [1]) is reported as over 10 µM.

Molecule `Nc1nc2c(s1)CCCC2` has an IC50 (HUVEC [1]) of over 10 µM.

In the case of `CCC(=O)Nc1nc2c(s1)CCCc1ccccc1-2`, the “Ratio IC50” value (HeLa [4]) is reported as over 5, the IC50 (BT-474) is reported as over 20 µM and the IC50 (HUVEC [1]) is reported as 3.7 µM. The IC50 [2] was over 20 µM, the “Ratio IC50” value (HUVEC [5]) was over 5 and the IC50 (HeLa [3]) was over 20 µM. The “Ratio IC50” value (HUVEC [6]) was over 5.

Work on `CCCCCC(=O)Nc1nc2c(s1)CCc1ccccc1-2` yielded an IC50 (HUVEC [1]) of 3 µM.

With `CCOC(=O)Nc1nc2c(s1)CSc1ccc(Cl)cc1-2` the “Ratio IC50” value (HeLa [4]) was 2.3, the IC50 (BT-474) was 6.2 µM and the IC50 (HUVEC [1]) was 2.8 µM. For the same molecule, the IC50 [2] was 6.3 µM, the “Ratio IC50” value (HUVEC [5]) was 2.2 and the IC50 (HeLa [3]) was 6.5 µM. The “Ratio IC50” value (HUVEC [6]) was 2.3.

Work on `Nc1nc(-c2ccc(Cl)cc2)cs1` yielded an IC50 (HUVEC [1]) of over 10 µM.

For `CC(=O)Nc1nc2c(s1)-c1ccccc1CC2`, the IC50 (HUVEC [1]) was over 10 µM.

Work on `C#CCOc1ccc(C(=O)Nc2nc3c(s2)CCCc2ccccc2-3)cc1` yielded an IC50 (HUVEC [1]) of 7.3 µM.

With `CCC(=O)N(C(=O)CC)c1nc2c(s1)CCCc1ccccc1-2` the Ratio IC50 (HeLa [4]) was 4, the IC50 (BT-474) was over 20 µM and the IC50 (HUVEC [1]) was 1.5 µM. The IC50 [2] was 2.8 µM, the “Ratio IC50” value (HUVEC [5]) was over 13 and the IC50 (HeLa [3]) was 5.9 µM. For the same molecule, the “Ratio IC50” value (HUVEC [6]) was 1.9.

With `Clc1ccc2c(c1)-c1nc(NCc3ccco3)sc1CS2` the “Ratio IC50” value (HeLa [4]) was 9.4, the IC50 (BT-474) was 2.3 µM and the inhibition (HUVEC [7]) was “Dose-dependent effect”. For the same molecule, the IC50 (HUVEC [1]) was 1.1 µM, the IC50 [2] was 2.5 µM and the “Ratio IC50” value (HUVEC [5]) was 2.1. For the same molecule, the IC50 (HeLa [3]) was 10.3 µM and the “Ratio IC50” value (HUVEC [6]) was 2.3.

`CC(=O)Nc1nc2c(s1)CCc1ccccc1-2` gave an IC50 (HUVEC [1]) of over 10 µM.

Work on `CCC(=O)Nc1nc2c(s1)Cc1cc(F)ccc1-2` yielded an IC50 (HUVEC [1]) of over 10 µM.

In the case of `Nc1nc2c(s1)CCOc1cc3c(cc1-2)OCO3`, the IC50 (HUVEC [1]) is reported as 5.1 µM.

For `Nc1nc2c(s1)CSc1ccccc1-2`, the “Ratio IC50” value (HeLa [4]) was 3.6, the IC50 (BT-474) was 8.2 µM and the IC50 (HUVEC [1]) was 1.9 µM. The IC50 [2] was 0.9 µM, the “Ratio IC50” value (HUVEC [5]) was 4.3 and the IC50 (HeLa [3]) was 6.8 µM. For the same molecule, the “Ratio IC50” value (HUVEC [6]) was 0.5.

Work on `[N-]=[N+]=NCCCCCCNc1nc2c(s1)CSc1ccccc1-2` yielded an IC50 (HUVEC [1]) of 5.9 µM.

In the case of `O=C(Nc1nc2c(s1)CCCc1ccc(F)cc1-2)c1c(F)cccc1F`, the IC50 (BT-474) is reported as over 20 µM, the IC50 (HUVEC [1]) is reported as 13.5 µM and the IC50 [2] is reported as over 20 µM. It also gave an IC50 (HeLa [3]) of over 20 µM.

With `CCCCCC(=O)Nc1nc2c(s1)CCc1cc(OC)ccc1-2` the IC50 (HUVEC [1]) was 3.7 µM.

In the case of `Nc1nc2c(s1)CSc1ccc(Cl)cc1-2`, the “Ratio IC50” value (HeLa [4]) is reported as 6.3, the IC50 (BT-474) is reported as 3.8 µM and the IC50 (HUVEC [1]) is reported as 1.9 µM. For the same molecule, the IC50 [2] was 1.6 µM, the “Ratio IC50” value (HUVEC [5]) was 2 and the IC50 (HeLa [3]) was 11.9 µM. The “Ratio IC50” value (HUVEC [6]) was 0.8.

In the case of `CCOC(=O)Nc1nc2c(s1)CCCc1ccccc1-2`, the IC50 (BT-474) is reported as over 20 µM, the IC50 (HUVEC [1]) is reported as 9.2 µM and the IC50 [2] is reported as over 20 µM. It also gave an IC50 (HeLa [3]) of over 20 µM.

Work on `CCC(=O)Nc1nc2c(s1)CCCC2` yielded an IC50 (HUVEC [1]) of over 10 µM.

For `COc1ccc2c(c1)CCc1sc(NCc3ccco3)nc1-2`, the IC50 (HUVEC [1]) was 4.5 µM.

In the case of `O=C(Nc1nc2c(s1)CCCc1ccccc1-2)c1c(F)cccc1F`, the “Ratio IC50” value (HeLa [4]) is reported as 10, the IC50 (BT-474) is reported as over 20 µM and the inhibition (HUVEC [7]) is reported as “Dose-dependent effect”. The IC50 (HUVEC [1]) was 1.5 µM, the inhibition at 5 µM (HUVEC [8]) was 75% and the IC50 [2] was over 20 µM. The “Ratio IC50” value (HUVEC [5]) was over 13, the IC50 (HeLa [3]) was 15.2 µM and the “Ratio IC50” value (HUVEC [6]) was over 13.

With `CC(=O)Nc1nc(-c2ccc(Cl)cc2)cs1` the IC50 (HUVEC [1]) was over 10 µM.

In the case of `COc1ccc2c(c1)-c1nc(N)sc1CC2`, the IC50 (HUVEC [1]) is reported as over 10 µM.

For `Nc1nc2c(s1)CCCc1ccccc1-2`, the IC50 (BT-474) was over 20 µM, the IC50 (HUVEC [1]) was 19.1 µM and the IC50 [2] was over 20 µM. It also gave an IC50 (HeLa [3]) of over 20 µM.

In the case of `Nc1nc2c(s1)Cc1cc(F)ccc1-2`, the IC50 (HUVEC [1]) is reported as over 10 µM.

`Nc1nc2c(s1)COc1ccccc1-2` showed an IC50 (HUVEC [1]) of over 10 µM.

With `COc1ccc2c(c1)-c1nc(NC(C)=O)sc1CC2` the IC50 (HUVEC [1]) was 4.2 µM.

With `C#CCOc1ccc(C(=O)Nc2nc3c(s2)CSc2ccccc2-3)cc1` the “Ratio IC50” value (HeLa [4]) was 1.7, the IC50 (BT-474) was 0.3 µM and the IC50 (HUVEC [1]) was 2.9 µM. The IC50 [2] was 4.6 µM, the “Ratio IC50” value (HUVEC [5]) was 0.1 and the IC50 (HeLa [3]) was 5 µM. The “Ratio IC50” value (HUVEC [6]) was 1.6.

In the case of `COc1ccc2c(c1)CCc1sc(N)nc1-2`, the IC50 (HUVEC [1]) is reported as over 10 µM.

`CCC(=O)Nc1nc2c(s1)COc1ccc(F)cc1-2` showed an IC50 (HUVEC [1]) of over 10 µM.

With `COc1ccc2c(c1)CCc1sc(NC(C)=O)nc1-2` the IC50 (HUVEC [1]) was over 10 µM.

In the case of `COc1ccc(-c2csc(N)n2)cc1OC`, the IC50 (HUVEC [1]) is reported as over 10 µM.

In the case of `COc1ccc(-c2csc(NC(C)=O)n2)cc1OC`, the IC50 (HUVEC [1]) is reported as over 10 µM.

Work on `Nc1nc2c(s1)-c1ccccc1CC2` yielded an IC50 (HUVEC [1]) of over 10 µM.

Work on `COc1cccc2c1CCc1sc(N)nc1-2` yielded an IC50 (HUVEC [1]) of over 10 µM.

`COc1ccc2c(c1)Cc1sc(N)nc1-2` showed an IC50 (HUVEC [1]) of over 10 µM.

Work on `COc1cccc2c1CCc1sc(NC(C)=O)nc1-2` yielded an IC50 (HUVEC [1]) of over 10 µM.

In the case of `O=C(Nc1nc2c(s1)CSc1ccccc1-2)c1c(F)cccc1F`, the IC50 (BT-474) is reported as 7.2 µM, the IC50 (HUVEC [1]) is reported as 12 µM and the IC50 [2] is reported as 11.8 µM. The IC50 (HeLa [3]) was 13.1 µM.

With `Nc1nc2c(s1)COc1ccc(F)cc1-2` the IC50 (HUVEC [1]) was over 10 µM.

For `COc1ccc2c(c1)Cc1sc(NC(C)=O)nc1-2`, the IC50 (HUVEC [1]) was 4.4 µM.

In the case of `O=C(Nc1nc2c(s1)CSc1ccc(Cl)cc1-2)c1c(F)cccc1F`, the “Ratio IC50” value (HeLa [4]) is reported as over 4, the IC50 (BT-474) is reported as 3.6 µM and the IC50 (HUVEC [1]) is reported as 5.2 µM. The IC50 [2] was 17.3 µM, the “Ratio IC50” value (HUVEC [5]) was 0.7 and the IC50 (HeLa [3]) was over 20 µM. For the same molecule, the “Ratio IC50” value (HUVEC [6]) was 3.3.

In the case of `Nc1nc2c(s1)CCc1ccccc1-2`, the IC50 (HUVEC [1]) is reported as over 10 µM.

For `CCC(=O)Nc1nc2c(s1)CSc1ccccc1-2`, the “Ratio IC50” value (HeLa [4]) was 4, the IC50 (BT-474) was 5.9 µM and the IC50 (HUVEC [1]) was 2 µM. The IC50 [2] was 4.9 µM, the “Ratio IC50” value (HUVEC [5]) was 3 and the IC50 (HeLa [3]) was 8 µM. For the same molecule, the “Ratio IC50” value (HUVEC [6]) was 2.5.

`COc1cc2c(cc1OC)-c1nc(N)sc1CC2` showed an IC50 (HUVEC [1]) of over 10 µM.

In the case of `CCC(=O)Nc1nc2c(s1)COc1ccccc1-2`, the IC50 (HUVEC [1]) is reported as over 10 µM.

From ChEMBL document CHEMBL2375231, “Tricyclic thiazoles are a new class of angiogenesis inhibitors” (Bioorg Med Chem Lett, 2013)
